Experimental data from the METLIN SMRT retention time set (Domingo-Almenara et al. 2019).

Assay: gradient 5% acetonitrile 3 min, to 50% in 2 min, to 85% in 15 min, held 3 min, 100 µL/min
Conditions: column: Zorbax Extend-C18 2.1 x 50 mm; eluents: water / acetonitrile, 0.1% formic acid
Summary of the method: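 Over 3 months, pure standards in mixtures of ~100 molecules were run by HPLC coupled to a quadrupole time-of-flight mass spectrometer in positive and negative ionization mode. The column was a Zorbax Extend-C18 (2.1 × 50 mm, 1.8 μm) at 100 μL/min, eluted with water and acetonitrile each holding 0.1% formic acid, with 40 μL dead and 900 μL dwell volumes. Retention time was determined from adduct peaks chosen by software and checked manually.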

| RP-LC retention time | Structure (SMILES) |
| --- | --- |
| 820 s | COC(=O)c1c(NCc2ccccc2OC)c2cccc(Cl)c2[nH]c1=O |
| 780 s | O=C(NCCn1ncc2c(=O)n(Cc3cccc(Cl)c3)cnc21)c1cc2ccccc2o1 |
| 592 s | CC(=O)N(Cc1nn(C)c2c1CN(Cc1cccc(O)c1)CC2)c1ccccc1 |
| 674 s | CCN(CC)CCc1nc(-c2ccccc2)no1 |
| 813 s | Cc1nn(CC(=O)NCc2cccs2)c(=O)c2nc(-c3ccccc3)sc12 |
| 831 s | COc1ccc(OC)c(C2CN(C(=O)C3CCCC3)CC2C(=O)N2CCCCC2)c1 (centres undefined) |
| 702 s | Cc1cccc(-c2ncccc2CNS(=O)(=O)c2ccccc2F)c1 |
| 1140 s | CC(C)(C)c1cc(C(=O)NCc2ccc(F)cc2)nc2ccnn12 |
| 1190 s | CCC(C)n1c(=O)c2ccccc2n(Cc2nc(-c3ccccc3)no2)c1=O (centres undefined) |
| 930 s | CCc1cccc(N2C=C(C(=O)OC)S(=O)(=O)c3ccccc32)c1 |
| 642 s | CC1CCN(CCCNC(=O)c2nnc(-c3ccc(S(=O)(=O)N4CCCC4)cc3)o2)CC1 |
| 744 s | O=C1C2CCCN2C(=O)c2ccccc2N1Cc1ccccc1 (centres undefined) |
| 711 s | Cc1ccc(C)c(NC(=O)N2CCC(c3nc(C(=O)N(C)C)c(C)o3)CC2)c1 |
| 1230 s | CCOc1ccc(-c2noc(Cc3nc(-c4cccc(OC)c4)cs3)n2)cc1 |
| 1080 s | Cc1ccc(-c2cc3c4nnc(SCC(=O)Nc5cc(F)ccc5C)n4ccn3n2)cc1C |
| 668 s | O=C(c1ccc(Br)o1)N1CCN(c2ccc(NCc3ccccc3)nn2)CC1 |
| 1330 s | Cc1cc(C)n(-c2ncnc3c2cnn3Cc2ccccc2Cl)n1 |
| 661 s | CC(C)CC(=O)NCCc1nc2cccnc2n1-c1ccccc1 |
| 659 s | CC1CC(C)CN(CCCNC(=O)CCCn2c(=O)c3cccn3c3ccccc32)C1 (centres undefined) |
| 606 s | CC(C)NC(=O)c1ccccc1OCC1CCCN(C2CCC2)C1 (centres undefined) |
| 700 s | Cc1ccc(CNC(=O)CCc2c(C)nn(-c3cc(N4CCOCC4)ncn3)c2C)o1 |
| 679 s | O=S(=O)(c1cccs1)N1CC(c2nc(-c3ccncc3)no2)C1 |

| RP-LC retention time | Structure (SMILES) |
| --- | --- |
| 724 s | O=C([C@@H]1C[C@H](F)CN1C(=O)c1ccc(Cl)cc1)N1CCCCC1 |
| 585 s | O=C(Cn1c(=O)n(-c2ccccc2)c2ncccc21)NCCN1CCOCC1 |
| 898 s | CCOc1ccccc1C(=O)N1CCN=C1SCc1ccc([N+](=O)[O-])cc1 |
| 649 s | O=C1CC(C(=O)N2CCN(Cc3ccc4c(c3)OCO4)CC2)CN1CCc1c[nH]c2ccc(F)cc12 (centres undefined) |
| 704 s | CN(CC1CCOC1)C(=O)Nc1cc(F)ccc1F (centres undefined) |
| 688 s | CCCNC(=O)C1CCN(c2ccc(SCC(=O)Nc3ccc(Cl)cc3F)nn2)CC1 |
| 834 s | Cc1ccc(Nc2c(-c3cccc(O)c3)nc3cnccn23)cc1Br |
| 814 s | Cc1ccccc1Nc1c(-c2cc(Br)ccc2F)nc2cccc(C)n12 |
| 766 s | Cc1ccc(-c2ncccc2CNS(=O)(=O)c2cccc(Cl)c2)cc1 |
| 990 s | COc1cc(Nc2nc(-c3nnn(-c4ccc(F)cc4)c3C)ns2)cc(OC)c1 |
| 568 s | COc1ncccc1CNC(=O)NCc1ccco1 |
| 1040 s | Cc1cccc(-c2nnc(Cc3nc(-c4ccccc4)no3)o2)c1 |
| 651 s | CCNC(=O)c1ccc2c(c1)CCN2C(=O)CC |
| 622 s | Cc1ccn2cc(-c3ccc(NC(=O)c4ccccc4[N+](=O)[O-])cc3)nc2n1 |
| 932 s | O=c1c2sccc2n(Cc2nc(-c3ccccc3)no2)c(=O)n1-c1ccccc1 |
| 608 s | COCC(C)(O)CNC(=O)COc1ccccc1OC (centres undefined) |
| 786 s | CCCn1cc(CCNS(=O)(=O)c2ccccc2)c2cccnc21 |
| 1070 s | CCOc1cccc(-c2noc(Cc3nnc(-c4cccc(F)c4)o3)n2)c1 |
| 637 s | COc1ccc(C2C(C(=O)N3CCOCC3)c3cc(OC)c(OC)cc3C(=O)N2C)cc1OC (centres undefined) |
| 652 s | CCN(CC)CCCNC(=O)C1CCCN(C(=O)c2nnc(C(=O)Nc3ccc(F)cc3)s2)C1 (centres undefined) |
| 884 s | CSc1cccc(NC(=O)N2CCC(C)(C(=O)NCc3ccc(F)cc3)CC2)c1 |
| 636 s | COCC1CCN(C(=O)CCC2CCN(c3cc(NC4CC4)ncn3)CC2)CC1 |

| RP-LC retention time | Structure (SMILES) |
| --- | --- |
| 701 s | COCCNC(=O)CC1CCN(C(=O)c2cc3cc(Cl)ccc3[nH]2)CC1 |
| 948 s | Cc1ccc(NC(=O)C2CCN(S(=O)(=O)c3ccc4c(c3)NC(=O)C(C)O4)CC2)cc1Cl (centres undefined) |
| 1130 s | CC12CCC(C1)C(C)(C)C2OC(=O)c1ccccc1C(=O)O (centres undefined) |
| 1220 s | O=C(Nc1ccc(Cl)c(Cl)c1)Nc1nc(-c2ccccc2)cs1 |
| 612 s | CN(CCc1ccncc1)C(=O)C1CCN(c2cnn(Cc3ccccc3)c(=O)c2)CC1 |
| 850 s | CCCCOc1ccc(NC(=O)c2oc3ccc(F)cc3c2C)c2cccnc12 |
| 973 s | Clc1cccc(-c2nnc(-c3nc(N4CCOCC4)c4ccccc4n3)o2)c1 |
| 850 s | O=C(Nc1cc(F)ccc1F)N1CCC(N2CCN(Cc3ccc(F)cc3)C2=O)CC1 |
| 610 s | CN1C(=O)[C@H]2CN(Cc3cc(F)cc(F)c3)C[C@H]2C1=O |
| 634 s | CN(C)C(=O)N1CC(c2noc(-c3cccnc3)n2)C2(CCOCC2)C1 (centres undefined) |
| 809 s | O=C(Cc1csc2nc(-c3ccccc3)cn12)Nc1ccc(F)cc1F |
| 683 s | CCN(CC)CCNC(=O)c1nnc(-c2oc3c(C)cccc3c2C)o1 |
| 648 s | COCC(=O)NC1CCC12CCN(C(=O)c1ccco1)CC2 (centres undefined) |
| 1080 s | O=C(NC1CCCC1)N1CC(Oc2ccc(-c3nc(-c4ccccc4)no3)cc2)C1 |
| 1120 s | COc1cccc(-c2nnc(Cc3nc(-c4ccc(C)c(C)c4)no3)o2)c1 |
| 1160 s | Cc1cccc(-c2noc(CN3C(=O)COc4cc(Cl)ccc43)n2)c1 |
| 1060 s | CCOc1ccc(-c2cc3c(=O)n(Cc4nc(-c5ccc(OC)c(OC)c5)no4)ncn3n2)cc1 |
| 832 s | O=C1NC2(CCN(C(=O)c3cccc(Cl)c3)CC2)N=C1c1ccccc1 |
| 603 s | CCN1c2ccc(C)cc2C(=O)NC12CCN(C(=O)c1cccc(Cl)c1)CC2 |
| 1000 s | Cc1nc(-c2csc(S(=O)(=O)N3CCCC(C(=O)NC4CCCCCC4)C3)c2)no1 (centres undefined) |
| 757 s | O=C(O[C@@H]1CN2CCC1CC2)N1CCc2ccccc2C1c1ccccc1 (some centres undefined) |
| 599 s | Cc1cc(N2CCC(C)CC2)n2nc(CN3CCN(c4ccccn4)CC3)nc2n1 |

| RP-LC retention time | Structure (SMILES) |
| --- | --- |
| 659 s | O=C(N[C@H]1C[C@@H]2C[C@H]1CN2C(=O)c1ccc(Cl)s1)c1cccnc1 |
| 889 s | O=C(NCc1ccco1)c1ccc2c(c1)CCCN2C(=O)c1cccc(Cl)c1 |
| 575 s | CCCOc1ccc(CN2C[C@@H](CO)[C@H](c3ccncc3)C2)cc1 |
| 524 s | CCOC(=O)c1ccccc1NC(=O)CSc1ccc(-c2ccco2)nn1 |
| 1250 s | CCCOc1nc2ccccc2nc1N1CCCC(C(=O)Nc2ccccc2)C1 (centres undefined) |
| 611 s | Cc1nccn1Cc1noc(-c2cccc(F)c2)n1 |
| 832 s | C[C@H]1CC2C3CCC4=CC(=O)C=C[C@]4(C)[C@@]3(Cl)[C@@H](O)C[C@]2(C)[C@@]1(O)C(=O)CO (some centres undefined) |
| 703 s | O=C(Nc1cccc(Br)c1)N1CCN(Cc2nc3cccnc3n2-c2ccccc2)CC1 |
| 714 s | CCC(C)NC(=O)Cn1cccc(-c2nc(-c3ccc(OC)c(OC)c3)no2)c1=O (centres undefined) |
| 540 s | COc1ccc(C(O)CN2CCN(c3ccccn3)CC2)cc1 (centres undefined) |
| 1010 s | COc1ccc(-c2ncc3c(n2)CCN(C(=O)Nc2cccc(Br)c2)C3)cc1 |
| 770 s | CCOC(=O)c1ncoc1-c1ccccc1C(=O)NC1CCCCC1 |
| 691 s | CCNC(=O)C1CCCN(C(=O)Nc2ccc(NC(=O)Nc3ccc(F)cc3)cc2)C1 (centres undefined) |
| 999 s | O=C(Cn1cnc2c(sc3nc(-c4ccccc4)ccc32)c1=O)Nc1ccc(F)cc1F |
| 779 s | COCCOC1CCC12CCN(C(=O)c1occc1C)CC2 (centres undefined) |
| 686 s | Cc1cc(NC(=O)C2CCCN(c3ccc(-c4ccc(Cl)cc4)nn3)C2)no1 (centres undefined) |
| 987 s | Fc1cc(F)cc(-c2nnc(Cc3nc(-c4ccc5c(c4)OCO5)no3)o2)c1 |
| 732 s | Cc1ccc(S(=O)(=O)Nc2ccc(Cn3cncn3)cc2)cc1F |
| 778 s | O=C(Nc1cnc(N2CCCCCC2)nc1)C1CCC1 |
| 864 s | COc1ccc(C)cc1NC(=O)C1CCCN(c2ncnc3c2nc2n3CCCCC2)C1 (centres undefined) |
| 710 s | Cc1ccc(F)c(NS(=O)(=O)c2cc(-c3[nH]ncc3C(=O)N3CCCC3)oc2C)c1 |

| Structure (SMILES) | RP-LC retention time |
| --- | --- |
| COc1ccc2c(c1)C1(CCN(S(=O)(=O)c3ccccc3)C1)C(=O)N2 (centres undefined) | 771 s |
| COc1ccc2c(c1)C1(CCN(C(=O)c3ccc(C#N)cc3)C1)C(=O)N2C (centres undefined) | 735 s |
